From PubChem BioAssay AID1963845 (Molecular Pharmacology Branch, DTP, NCI, 2024)

Tested on: 429239-143-T-J1-PDC complex spheroid viability
Assay: Anticancer human tumor 429239-143-T-J1-PDC patient-derived small cell lung carcinoma cell line growth inhibition [POLQ]
Details: for IC50: curve of first compound; for viability, T/C: stronger effect = lower value
Outline: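 Complex spheroid viability model combining PDC tumour cells with endothelial (HUVEC) and MSC stromal cells. Novobiocin, ART-558 or RP6685 were tested singly and in combination with standard and investigational anticancer drugs. Each was titrated in half-log steps from near clinical Cmax, or from 10 microM where Cmax was unknown.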

[1] = second compound 0.0316 µM, first compound 0.0316 µM
[2] = second compound 0.0316 µM, first compound 0.1 µM
[3] = second compound 0.0316 µM, first compound 0.316 µM
[4] = second compound 0.0316 µM, first compound 1 µM
[5] = second compound 0.0316 µM, first compound 3.16 µM
[6] = second compound 0.0316 µM, first compound 10 µM
[7] = second compound 0.1 µM, first compound 0.0316 µM
[8] = second compound 0.1 µM, first compound 0.1 µM
[9] = second compound 0.1 µM, first compound 0.316 µM
[10] = second compound 0.1 µM, first compound 1 µM
[11] = second compound 0.1 µM, first compound 3.16 µM
[12] = second compound 0.1 µM, first compound 10 µM
[13] = second compound 0.316 µM, first compound 0.0316 µM
[14] = second compound 0.316 µM, first compound 0.1 µM
[15] = second compound 0.316 µM, first compound 0.316 µM
[16] = second compound 0.316 µM, first compound 1 µM
[17] = second compound 0.316 µM, first compound 3.16 µM
[18] = second compound 0.316 µM, first compound 10 µM
[19] = second compound 1 µM, first compound 0.0316 µM
[20] = second compound 1 µM, first compound 0.1 µM
[21] = second compound 1 µM, first compound 0.316 µM
[22] = second compound 1 µM, first compound 1 µM
[23] = second compound 1 µM, first compound 3.16 µM
[24] = second compound 1 µM, first compound 10 µM
[25] = second compound 3.16 µM, first compound 0.0316 µM
[26] = second compound 3.16 µM, first compound 0.1 µM
[27] = second compound 3.16 µM, first compound 0.316 µM
[28] = second compound 3.16 µM, first compound 1 µM
[29] = second compound 3.16 µM, first compound 3.16 µM
[30] = second compound 3.16 µM, first compound 10 µM
[31] = second compound 10 µM, first compound 0.0316 µM
[32] = second compound 10 µM, first compound 0.1 µM
[33] = second compound 10 µM, first compound 0.316 µM
[34] = second compound 10 µM, first compound 1 µM
[35] = second compound 10 µM, first compound 3.16 µM
[36] = second compound 10 µM, first compound 10 µM
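Note: luminescence signal used as surrogate measure of viable cells; spheroids exposed to compounds for seven days before readout.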
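Throughout, for viability, T/C: 100% = DMSO vehicle control viability as luminescence relative to vehicle.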

C#Cc1c(F)ccc2cc(O)cc(-c3ncc4c(N5CC6CCC(C5)N6)nc(OCC56CCCN5CC(F)C6)nc4c3F)c12 (stereo not drawn) + Nc1ccc(C#CCN(C(=O)Cc2ncc(C(F)(F)F)cc2C(F)(F)F)c2ccc(F)cc2)nn1
IC50 (second compound 0.0316 µM): > 10 µM | IC50 (second compound 0.1 µM): > 10 µM | IC50 (second compound 0.316 µM): > 10 µM | IC50 (second compound 1 µM): > 10 µM | IC50 (second compound 3.16 µM): > 10 µM | IC50 (second compound 10 µM): > 10 µM | viability, T/C [1]: 98.6% | viability, T/C [2]: 106% | viability, T/C [3]: 103% | viability, T/C [4]: 109% | viability, T/C [5]: 102% | viability, T/C [6]: 89.3% | viability, T/C [7]: 103% | viability, T/C [8]: 107% | viability, T/C [9]: 102% | viability, T/C [10]: 98.7% | viability, T/C [11]: 101% | viability, T/C [12]: 95% | viability, T/C [13]: 106% | viability, T/C [14]: 93% | viability, T/C [15]: 102% | viability, T/C [16]: 100% | viability, T/C [17]: 99.9% | viability, T/C [18]: 96.9% | viability, T/C [19]: 102% | viability, T/C [20]: 99.8% | viability, T/C [21]: 105% | viability, T/C [22]: 105% | viability, T/C [23]: 99.7% | viability, T/C [24]: 93.1% | viability, T/C [25]: 99.4% | viability, T/C [26]: 98% | viability, T/C [27]: 106% | viability, T/C [28]: 93.8% | viability, T/C [29]: 103% | viability, T/C [30]: 96.8% | viability, T/C [31]: 93.9% | viability, T/C [32]: 106% | viability, T/C [33]: 97.4% | viability, T/C [34]: 102% | viability, T/C [35]: 101% | viability, T/C [36]: 90.5%

CC1COCCN1c1cc(C2(O)CC3CCC(C2)O3)c2cnn(-c3ccn[nH]3)c2n1 (stereo not drawn) + COC1C(OC(N)=O)C(O)C(Oc2ccc3c(O)c(NC(=O)c4ccc(O)c(CC=C(C)C)c4)c(=O)oc3c2C)OC1(C)C
IC50 (second compound 0.0316 µM): 0.0487 µM | IC50 (second compound 0.1 µM): 0.0636 µM | IC50 (second compound 0.316 µM): 0.049 µM | IC50 (second compound 1 µM): 0.0659 µM | IC50 (second compound 3.16 µM): 0.0578 µM | IC50 (second compound 10 µM): 0.0432 µM | viability, T/C [1]: 60.6% | viability, T/C [2]: 32.4% | viability, T/C [3]: 15.4% | viability, T/C [4]: 9.3% | viability, T/C [5]: 7.39% | viability, T/C [6]: 6.59% | viability, T/C [7]: 69.8% | viability, T/C [8]: 37.4% | viability, T/C [9]: 16% | viability, T/C [10]: 9.73% | viability, T/C [11]: 7.67% | viability, T/C [12]: 5.38% | viability, T/C [13]: 62.4% | viability, T/C [14]: 28.4% | viability, T/C [15]: 18.1% | viability, T/C [16]: 9.94% | viability, T/C [17]: 6.92% | viability, T/C [18]: 5.8% | viability, T/C [19]: 67.5% | viability, T/C [20]: 39.9% | viability, T/C [21]: 19.2% | viability, T/C [22]: 7.99% | viability, T/C [23]: 7.48% | viability, T/C [24]: 5.25% | viability, T/C [25]: 69.7% | viability, T/C [26]: 31.6% | viability, T/C [27]: 17.1% | viability, T/C [28]: 8.72% | viability, T/C [29]: 6.53% | viability, T/C [30]: 5.31% | viability, T/C [31]: 56.7% | viability, T/C [32]: 32% | viability, T/C [33]: 18.1% | viability, T/C [34]: 8.41% | viability, T/C [35]: 9.41% | viability, T/C [36]: 5.38%

CCc1cc2c(N3CCc4c(cc(Cn5ccnc5)cc4-c4cn(C)nc4C(F)(F)F)C3=O)ccnc2c(OC)n1 + Nc1ccc(C#CCN(C(=O)Cc2ncc(C(F)(F)F)cc2C(F)(F)F)c2ccc(F)cc2)nn1
IC50 (second compound 0.0316 µM): 9.75 µM | IC50 (second compound 0.1 µM): > 10 µM | IC50 (second compound 0.316 µM): 7.86 µM | IC50 (second compound 1 µM): 9.55 µM | IC50 (second compound 3.16 µM): > 10 µM | IC50 (second compound 10 µM): > 10 µM | viability, T/C [1]: 100% | viability, T/C [2]: 94.9% | viability, T/C [3]: 85.2% | viability, T/C [4]: 80.7% | viability, T/C [5]: 86.4% | viability, T/C [6]: 48% | viability, T/C [7]: 93.7% | viability, T/C [8]: 96.8% | viability, T/C [9]: 92.5% | viability, T/C [10]: 74.1% | viability, T/C [11]: 68.5% | viability, T/C [12]: 49.2% | viability, T/C [13]: 112% | viability, T/C [14]: 113% | viability, T/C [15]: 97.8% | viability, T/C [16]: 83.8% | viability, T/C [17]: 69.9% | viability, T/C [18]: 44.7% | viability, T/C [19]: 108% | viability, T/C [20]: 94.4% | viability, T/C [21]: 94.4% | viability, T/C [22]: 84.6% | viability, T/C [23]: 74.3% | viability, T/C [24]: 47.6% | viability, T/C [25]: 108% | viability, T/C [26]: 96% | viability, T/C [27]: 93.1% | viability, T/C [28]: 93.6% | viability, T/C [29]: 70.9% | viability, T/C [30]: 54% | viability, T/C [31]: 103% | viability, T/C [32]: 93% | viability, T/C [33]: 88.5% | viability, T/C [34]: 79.1% | viability, T/C [35]: 71% | viability, T/C [36]: 48.2%

CNCc1ccc(-c2[nH]c3cc(F)cc4c3c2CCNC4=O)cc1 + Nc1ccc(C#CCN(C(=O)Cc2ncc(C(F)(F)F)cc2C(F)(F)F)c2ccc(F)cc2)nn1
IC50 (second compound 0.0316 µM): 6.53 µM | IC50 (second compound 0.1 µM): 6.07 µM | IC50 (second compound 0.316 µM): 6.32 µM | IC50 (second compound 1 µM): 5.54 µM | IC50 (second compound 3.16 µM): 6.09 µM | IC50 (second compound 10 µM): 5.96 µM | viability, T/C [1]: 98.7% | viability, T/C [2]: 99.6% | viability, T/C [3]: 97.7% | viability, T/C [4]: 94.6% | viability, T/C [5]: 82.4% | viability, T/C [6]: 30.9% | viability, T/C [7]: 92.7% | viability, T/C [8]: 88.4% | viability, T/C [9]: 90.6% | viability, T/C [10]: 86.8% | viability, T/C [11]: 80.6% | viability, T/C [12]: 26.5% | viability, T/C [13]: 97.2% | viability, T/C [14]: 94.7% | viability, T/C [15]: 98.5% | viability, T/C [16]: 93.5% | viability, T/C [17]: 79.4% | viability, T/C [18]: 30.6% | viability, T/C [19]: 106% | viability, T/C [20]: 96.1% | viability, T/C [21]: 86.3% | viability, T/C [22]: 84.8% | viability, T/C [23]: 79.3% | viability, T/C [24]: 24% | viability, T/C [25]: 104% | viability, T/C [26]: 92.2% | viability, T/C [27]: 94.7% | viability, T/C [28]: 90.7% | viability, T/C [29]: 75.1% | viability, T/C [30]: 31.4% | viability, T/C [31]: 101% | viability, T/C [32]: 80.5% | viability, T/C [33]: 87.6% | viability, T/C [34]: 83% | viability, T/C [35]: 81.8% | viability, T/C [36]: 24.1%
